This is an account of results in paper PMC3277506, “Extra-Renal Elimination of Uric Acid via Intestinal Efflux Transporter BCRP/ABCG2” (PLoS ONE, 2012).

The target of one data set is T1, hBCRP (Homo sapiens, UniProt Q9UNQ0).
T1 construct: purchased GenoMembrane Inc. (Yokohama, Japan); host or cells: Sf9 cells
T1 sequence (Q9UNQ0 1-655): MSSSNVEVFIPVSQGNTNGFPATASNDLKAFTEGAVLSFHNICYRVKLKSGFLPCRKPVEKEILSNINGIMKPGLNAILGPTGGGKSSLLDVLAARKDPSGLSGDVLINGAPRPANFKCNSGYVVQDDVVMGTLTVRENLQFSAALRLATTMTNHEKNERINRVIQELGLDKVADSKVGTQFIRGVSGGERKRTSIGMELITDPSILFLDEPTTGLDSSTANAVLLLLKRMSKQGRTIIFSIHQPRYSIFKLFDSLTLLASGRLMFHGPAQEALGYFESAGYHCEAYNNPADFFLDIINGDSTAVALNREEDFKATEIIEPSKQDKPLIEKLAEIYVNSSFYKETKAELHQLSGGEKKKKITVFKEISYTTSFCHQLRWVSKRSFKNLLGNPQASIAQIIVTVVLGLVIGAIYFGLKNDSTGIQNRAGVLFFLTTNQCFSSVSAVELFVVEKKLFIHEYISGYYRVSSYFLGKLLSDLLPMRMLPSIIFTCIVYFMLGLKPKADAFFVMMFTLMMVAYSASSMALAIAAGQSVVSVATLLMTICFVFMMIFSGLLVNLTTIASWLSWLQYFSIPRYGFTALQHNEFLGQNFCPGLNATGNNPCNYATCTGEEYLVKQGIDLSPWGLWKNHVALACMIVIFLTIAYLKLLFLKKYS
Set-up: method as in PMID 20368174. The settings on record: read-out: Km of uric acid to hBCRP; cited from earlier work.

Data set [1] can be described thus: Bidirectional transcellular transport of [14C]uric acid in Caco-2 cells. It counts as in vitro ADME, human. The settings on record: human, Control (no inhibitor). The method, then:
Caco-2 cells were obtained from the American Type Culture Collection (Rockville, MD). Caco-2 cells were cultured in Dulbecco's modified Eagle's medium (D-MEM) (Invitrogen, Carlsbad, CA) supplemented with 10% (v/v) fetal bovine serum (Invitrogen), 100 units/mL benzylpenicillin, 100 µg/mL streptomycin, 1% (v/v) MEM non-essential amino acid solution (Invitrogen) at 37°C under an atmosphere of 5% CO2 in air. For bidirectional transport studies, Caco-2 cells were cultured on Transwell filter membrane inserts (BD Falcon, surface area 0.9 cm^2 and pore size 3 µm) at a density of 6.4×10^4 cells/cm^2 for 21 days before use for each experiment. […] Inhibitor was added to only apical side. Transport of [^14C]uric acid was measured in two directions, namely apical (AP)-to-basal (BL) and BL-to-AP directions. An aliquot of transport buffer was obtained from the donor side at 5 min for measurement of initial concentration, and from the receiver side at 30, 60, 90 and 120 min. Transport studies were performed at 37°C and pH 7.4.
The apparent permeability (Papp, cm/sec) of [^14C]uric acid across the cell monolayer was calculated using the following equation: [drawing 4] where Q is the amount of [^14C]uric acid transported over time t. Cd is the initial concentration in the donor side and A is the surface area of membrane.

The nature of data set [2]: Clearance of endogenous uric acid (urine, bile, estimated intestine) in oxonate-treated rats. It counts as in vivo, rat. The method, then:
Male Wistar rats (280±30 g body weight) used in the present study were treated with potassium oxonate, a uric acid oxidase (uricase) inhibitor. Oxonate-treated rats were established as described previously, [48]. Briefly, rats were anesthetized with 50% urethane (2 mL/kg) and infused with 0.9% NaCl, 0.5% oxonate and 4% mannitol solution from the femoral vein at the flow rate of 3 mL/hr. As a bolus, 0.9% NaCl, 1.5% oxonate and 4% mannitol solution was administered from the jugular vein at 6 mL/kg. After equilibration for 80 min, blood, urine and bile samples were collected at 20-min intervals. When [^14C]uric acid (2 µCi/rat) was used, it was intravenously injected from the jugular vein after oxonate treatment for 80 min. In order to suppress the uricolysis of [^14C]uric acid by intestinal flora, animals received orally non-absorbed antibiotics, polymyxin B, kanamycin, and vancomycin at daily doses of 50, 50 and 20 mg/kg, respectively, for 7 days before this animal study. Urine and bile were collected at 20-min intervals, and blood samples were drawn at 1, 5, 10, 20, 40, 60, 80, 100 and 120 min. Urine and bile were collected from bladder and bile ducts, respectively, and blood from the jugular vein. In mice, urine was collected for 24 hours by using metabolic cages (Natsume, Tokyo, Japan).
The following equation was used to calculate intestinal secretory clearance (µL/min/cm loop) and estimated total intestinal secretory clearance (CLintestine, estimated) (mL/min): [drawing 1] [drawing 2] [drawing 3] where A is the amount of uric acid secreted into the intestinal lumen of each loop for 60 min, L is the length of the intestine, and AUC is area under the plasma concentration-time curve.
Concentrations of uric acid in plasma, urine, bile, and intestinal content were analyzed by means of HPLC. Briefly, 80 µL 0.41% HClO4 was added to 40 µL of sample and mixed well. The sample was kept 4°C for 30 min. An aliquot was centrifuged at 15,000 rpm for 5 min at 4°C to separate denatured proteins. […] Uric acid was detected at 284 nm. […]

For data set [3] the following is noted: humans; cited from earlier work.
Another data set has as its target T2, rMdr1a (Rattus norvegicus, UniProt Q6PSM0).
T2 construct: expressed in transfected cells; host or cells: LLC-PK1 cells
Kind of data set: Bidirectional transport of uric acid in LLC-PK1 cells expressing rMdr1a. It is filed as in vitro ADME. The settings on record: data not shown.

Where “and” joins values, the source holds several entries; their conditions need not be identical. Equal values may be shown once.

For orientation: Km means the concentration of substrate that gives half-maximal velocity. The term efflux ratio denotes a quotient of directional permeabilities that is used to spot active efflux.

T2 sequence (Q6PSM0 1-1272): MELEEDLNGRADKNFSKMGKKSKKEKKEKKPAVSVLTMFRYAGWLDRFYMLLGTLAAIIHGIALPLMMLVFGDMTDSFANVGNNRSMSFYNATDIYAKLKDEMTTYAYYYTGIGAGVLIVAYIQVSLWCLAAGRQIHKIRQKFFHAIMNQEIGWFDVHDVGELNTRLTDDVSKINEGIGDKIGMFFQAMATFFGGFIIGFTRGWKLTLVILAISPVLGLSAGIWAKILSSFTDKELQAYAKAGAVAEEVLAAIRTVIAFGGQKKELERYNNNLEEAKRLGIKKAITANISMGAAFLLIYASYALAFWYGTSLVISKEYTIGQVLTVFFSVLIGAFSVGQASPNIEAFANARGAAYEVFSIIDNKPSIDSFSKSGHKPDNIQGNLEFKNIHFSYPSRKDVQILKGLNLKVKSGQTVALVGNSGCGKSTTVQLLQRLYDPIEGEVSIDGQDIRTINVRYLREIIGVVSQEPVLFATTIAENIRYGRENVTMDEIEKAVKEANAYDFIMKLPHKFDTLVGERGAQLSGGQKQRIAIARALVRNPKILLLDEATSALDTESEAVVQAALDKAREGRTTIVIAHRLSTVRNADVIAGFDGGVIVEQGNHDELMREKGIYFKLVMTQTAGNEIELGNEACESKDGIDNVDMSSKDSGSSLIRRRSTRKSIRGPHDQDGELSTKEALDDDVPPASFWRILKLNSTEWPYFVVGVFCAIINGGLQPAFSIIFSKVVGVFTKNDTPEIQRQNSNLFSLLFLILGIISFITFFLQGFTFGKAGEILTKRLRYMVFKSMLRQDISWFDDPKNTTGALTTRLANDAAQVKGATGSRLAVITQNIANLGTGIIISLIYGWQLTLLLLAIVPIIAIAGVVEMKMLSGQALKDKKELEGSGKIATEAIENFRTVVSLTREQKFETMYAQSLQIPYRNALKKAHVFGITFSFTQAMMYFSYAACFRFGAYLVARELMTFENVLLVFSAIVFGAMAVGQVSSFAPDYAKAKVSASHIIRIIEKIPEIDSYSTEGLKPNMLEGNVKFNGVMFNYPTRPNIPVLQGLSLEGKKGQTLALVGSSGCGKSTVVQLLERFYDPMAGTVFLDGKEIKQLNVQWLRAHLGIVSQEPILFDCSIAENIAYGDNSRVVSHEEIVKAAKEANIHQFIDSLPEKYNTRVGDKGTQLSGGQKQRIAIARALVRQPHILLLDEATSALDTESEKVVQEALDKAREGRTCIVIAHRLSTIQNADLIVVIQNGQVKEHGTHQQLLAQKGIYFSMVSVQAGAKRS

Consider `O=c1[nH]c(=O)c2[nH]c(=O)[nH]c2[nH]1` [uric acid], for which the Michaelis constant (Km) at hBCRP was 8.24 mM. In addition, the efflux ratio at 120 min in data set [1] (Caco-2, pH 7.4, BL-to-AP / AP-to-BL permeability) amounted to 2.13 ± 0.19. Further, the Papp A→B at 120 min in data set [1] (Caco-2 monolayer, 37°C, pH 7.4, read-out: Permeability AP to BL) came out at 0.81 ± 0.02 ×10⁻⁶ cm/s. Further, in data set [1] (Caco-2 monolayer, 37°C, pH 7.4, read-out: Permeability BL to AP), the Papp B→A at 120 min was determined as 1.73 ± 0.11 ×10⁻⁶ cm/s. Besides, in data set [2] (from closed loop clearance and intestinal length), the “CLintestine, estimated (total intestinal secretory clearance)” value is given as 0.15 mL/min. Also, the CL renal in data set [2] (male, Wistar, rat, urine (relative to plasma AUC), up to 60 min, amount excreted / plasma AUC, read-out: CLrenal of endogenous uric acid) is 0.5 ± 0.06 mL/min. For the same compound, in data set [2] (up to 60 min, amount excreted / plasma AUC), the “CLbile of endogenous uric acid” value is 0.02 mL/min and 0.02 ± 0.002 mL/min. Moreover, in data set [3], the “Biliary clearance of uric acid” value was 0.1 to 0.3 mL/min, the “Uric acid concentration in bile” value is 1 to 2 mg/dL and the “Urinary clearance of uric acid” value was 5.8 to 6.3 mL/min. For the same compound, the “Secretory versus absorptive transport of uric acid” value on rMdr1a is “no significant difference”.
